Measurements published in US20030129189A1, “Tumor necrosis factor-gamma” (priority 1994, published 2003).

Key:
Jurkat = assay: TNF-gamma activity on Jurkat cells; format: cell-based; parameters: key: The numbers of “+” indicate the relative level of activities.; ++: The numbers of “+” indicate the relative level of activities.; +++: The numbers of “+” indicate the relative level of activities.; “−” indicates no detected activity at the concentration range tested; settings: human T-cell lymphoma
Method: (§1) The adherent target cells were prepared from confluent cultures by trypsinization in PBS, and non-adherent target cells were harvested from stationary cultures and washed once with medium. Target cells were suspended at 3×10^5 cells/ml in medium containing 10% FCS. 0.1 ml aliquots were dispensed into 96-well flat-bottomed microtiter plates containing 0.1 ml serially diluted test samples of cells (WEHI 164 and L929). Incubation was continued for 70 hours. TNF-alpha, TNF-beta and bacterially-produced TNF-gamma were added at a 0.5 μg/ml concentration. The cytotoxicity and proliferation activity was quantified using an MTS assay performed by the addition of 20 μl of MTS and phenazine methosulfate (PMS) solution to each well. After a three hour incubation, the OD at 492 nm was measured by an ELISA plate reader. The OD492 is proportional to the number of viable cells in the wells. The percent of cytotoxicity was calculated as follows: […]. The photographs were taken after 72 hours.

[1] = test system: bFGF-induced corneal neovascularization; assay: Corneal angiogenic assay; format: in vivo, rat
Description: Basic FGF (“bFGF”) has been tested in this corneal angiogenic assay in various research laboratories for a variety of purposes. It has been shown that bFGF can induce significant angiogenesis in corneas (e.g., in rabbits, rats and mice). Based on the previous studies, bFGF was used in our study of TNF-gamma as an angiogenic factor to induce the growth of blood vessels in rat corneas.
An incision, 1-1.5 mm in length, is made in the center of the cornea with a microsurgery scalpel blade.
Starting at the incision, a micropocket is created between the collagenous layers of the corneal stroma with a Castroviego cyclodialysis spatula. This pocket extends to a point 1-2 mm from the capillary bed at the corneal-scleral limbus.
bFGF, which is incorporated 1:1 into non-inflammatory Hydron polymer (available from Interferon Sciences, New Brunswick, N.J.), is implanted into the pocket.
Five or seven days after corneal implantation, corneal blood perfusion with colloidal carbon is performed. Corneas are then harvested, fixed, flattened, mounted and photographed for morphology.
An image analysis system (IPLab) is used to quantify the corneal angiogenesis. The corneal surface area, which is covered by the new blood vessels, is quantified and used in our current study. After corneal implantation surgery, TNF-gamma, angiostatin or PBS in a volume of 25 microliters was injected into the conjunctival region adjacent to the implantation site. Based on molarities of TNF-gamma and angiostatin, 10 micrograms of TNF-gamma or 5 micrograms of angiostatin were given respectively four times, once a day, during the first four days post-surgery. TNF-gamma and angiostatin were prepared in PBS.
bFGF was used to induce neovascularization of the cornea from preexisting pericorneal limbal vessels in two different versions of the assay. First, corneas were surgically implanted with hydrogel plugs containing bFGF. […] In a separate study using an alternate version of this assay, both bFGF and treatment protein were co-administered on a nitrocellulose filter disk implanted within the rat corneal stroma. […] In both assays, the surface area of the angiogenic response was quantitated from digital images of treated corneas five days following implantation.

[2] = test system: chorioallantoic membrane (CAM); assay: Chicken embryonic chorioallantoic membrane (CAM) angiogenesis assay; format: in vivo; settings: 250 ng bacterially-produced TNF-gamma mixed with FGF-2 (100 ng) or VEGF (250 ng)
Method: The CAM assay was carried out essentially as described by Nguyen and colleagues (Microvasc. Res. 47:31-40 (1994)) and Iruela-Arispe and Dvorak (Thromb. Haemost. 78:672-677 (1997)). The method is based on the growth of new capillary vessels into a collagen gel pellet placed directly on the chorioallantoic membrane (CAM). Angiogenic factors such as […], FGF-2 (100 ng), VEGF (250 ng), or bFGF (10, 500, and 1000 ng) were embedded in collagen gel pellets and placed in contact with the CAM. Quantification of angiogenesis in the gels was carried out 24 hours after the placement of the gel pellets by using a Nikon fluorescence microscope. The images were transferred to a Power PC 100 AV, using a CCD Sony camera. Fluorescence intensity was evaluated with NH Image 1.61 software. Fluorescence intensity for the positive controls (which contained an angiogenic factor alone) was considered as the maximum angiogenic response, and set, arbitrarily, at 100. Due to the variability of the assay, inhibition greater than 20% was considered significant.
As an experimental determination of the effect of TNF-gamma on the FGF-2- or VEGF-induced angiogenesis, bacterially-produced TNF-gamma (250 ng) was mixed with either FGF-2 (100 ng) or VEGF (250 ng) and embedded in collagen gel pellets. The pellets were then placed in contact with the CAM as described above.

Primary HUVEC = assay: TNF-gamma activity on primary HUVEC; format: cell-based, human; parameters: key: The numbers of “+” indicate the relative level of activities.; ++: The numbers of “+” indicate the relative level of activities.; +++: The numbers of “+” indicate the relative level of activities.; “−” indicates no detected activity at the concentration range tested
Raji = assay: TNF-gamma activity on Raji cells; format: cell-based; parameters: key: The numbers of “+” indicate the relative level of activities.; ++: The numbers of “+” indicate the relative level of activities.; +++: The numbers of “+” indicate the relative level of activities.; “−” indicates no detected activity at the concentration range tested; settings: human Burkitt's lymphoma
Method: as §1

TNF-gamma: new member of the tumor necrosis factor family; the term refers to TNF-gamma-alpha and/or TNF-gamma-beta
Adhesion (Jurkat): −− | Differentiation (Jurkat): −− | Proliferation (Jurkat): − | angiogenic process in bFGF-implanted corneas ([1]; bFGF (300 ng) implant, conjunctival injection once a day for four days, 10 micrograms TNF-gamma or 5 micrograms angiostatin, seven days after surgery, vs PBS): significantly slowed down the angiogenic process | vessel growth in PBS-implanted corneas ([1]; multiple conjunctival injections): no obvious vessel growth | new capillary growth into collagen gels (FGF-2- or VEGF-induced angiogenesis) [2]: markedly inhibited new capillary growth into collagen gels | Differentiation (Primary HUVEC): −? | Proliferation (Primary HUVEC): ++ | Adhesion (Raji): −− | Differentiation (Raji): −− | Proliferation (Raji): −
